The record followed here is patent publication US7579376B2, “Geranyl compounds” (Ohgen Research Laboratories, Ltd., priority 2002, dated 2009).

Data set [1] relates to HuH-7 cells (dendriform cell strain of human hepatoma). The data set can be described thus: Measurement of antitumor effect: HuH-7 carcinoma pieces hypodermically implanted in nude mice, carcinomas weighed after administration. It is filed as in vivo. The conditions noted are these: Huh-7, ip, 504 h, carcinoma weight relative to control group (100%), 250 μg/mouse intraperitoneally in corn oil once per day for 3 weeks, starting a week after implantation. As to the method:
Measurement of Antitumor Effect
(§1) Carcinoma of HuH-7 cells (dendriform cell strain of human hepatoma) hypodermically implanted or subimplanted in the backs of 5-weeks old female nude mice (BALB/c, Ninox) was aseptically taken out and crushed into 5×5 mm sized pieces in a phosphate buffer solution (PBS), a piece of which then being hypodermically implanted in the backs of the nude mice.
(§2) Each test substance was dissolved in corn oil, and the solution was intraperitoneally administered to the nude mice consecutively once per day at a rate of 250 μg/mouse for 3 weeks, starting from a week after the implantation. After termination of the administration, the carcinomas were taken out and weighed to calculate the antitumor effect and the mice' weight loss by the following equations. For the test six mice per group were used, and the group administered with the solvent (corn oil) alone was made the control group:
(§3) Evaluations of antitumor effect and weight loss were conducted according to the following standard, where the control group values were held to be 100%.
• −: >100%, +/−: 100˜75%, +: 75˜50%, ++: 50˜25%, +++: 25˜0% Weight Loss • −: >110%, +/−: 110˜100%, +: 100˜95%, ++: 95˜90%, +++: <90% Death Rate (Death Rate During the Test Period) • −: none • +/−: death occurred with high concentration administration (500 μg/mouse) • +: 1-3 mice dead • ++: 3-5 mice dead • +++: all 6 mice dead Synthetic Evaluation • −: weak antitumor effect and very strong toxicity against host mice • +/−: weak antitumor effect recognizable and toxicity against host mice also observable • +: a fixed level of antitumor effect observable but toxicity against host mice also strong • ++: strong antitumor effect observed and toxicity against host mice week • +++: strong antitumor effect observed and no toxicity against host mice

Data set [2] in a line: Toxicity against host mice (weight loss, death rate) in the HuH-7 antitumor test. It is filed as in vivo. To be noted: 250 μg/mouse intraperitoneally once per day for 3 weeks, six mice per group; for Toxicity Death rate: death rate during the test period; for Toxicity Weight loss: mouse weight relative to control group (100%). As to the method: as §1, §2, §3

Compound `CC(=O)C(=O)Nc1ccc(C(=O)NC/C=C(\C)CCC=C(C)C)cc1` [N-geranyl-4-pyruvoaminobenzamide, N-geranyl-p-pyruvoaminobenzamide] came in with a response vs control in vivo at 0.25 mg in data set [1] of 25 to 50%. In data set [2], the “Toxicity Death rate” value was “−” and the “Toxicity Weight loss” value is “− (>110%)”.

In data set [1], `CC(C)=CCC/C(C)=C/CNC(=O)/C=C/C(=O)NC/C=C(\C)CCC=C(C)C` [N,N′-digeranylfumaric diamide, N,N′-digeranylfumaric Diamide] returned a response vs control in vivo at 0.25 mg of 25 to 50%. Further, in data set [2], the “Toxicity Death rate” value is on record as “−” and the “Toxicity Weight loss” value is “+/− (110˜100%)”.

Turning to `CC(C)=CCC/C(C)=C/CNC(=O)[C@@H](N)Cc1ccc(O)cc1` [Tyrosine geranylamide, Tyrosine Geranylamide], in data set [1], the response vs control in vivo at 0.25 mg was in the range of 50 to 75%. In data set [2], the “Toxicity Death rate” value is on record as “−” and the “Toxicity Weight loss” value was “+/− (110˜100%)”.

Compound `CC(C)=CCC/C(C)=C/CNC(=O)C1OC(O)C(O)C(O)C1O` (stereo not drawn) [N-geranyl galacturonamide, N-geranylgalacturonamide] registered a response vs control in vivo at 0.25 mg in data set [1] of 0 to 25%. For the same compound, in data set [2], the “Toxicity Death rate” value is recorded as “+/−” and the “Toxicity Weight loss” value is reported as “+/− (110˜100%)”.

In turn, `CC(=O)N[C@@H](Cc1ccc(O)cc1)C(=O)NC/C=C(\C)CCC=C(C)C` [N-acetyltyrosine geranylamide, N-acetyltyrosine Geranylamide] showed a response vs control in vivo at 0.25 mg in data set [1] of 50 to 75%. Moreover, in data set [2], the “Toxicity Death rate” value is reported as “−” and the “Toxicity Weight loss” value was “+/− (110˜100%)”.

`CC(C)=CCC/C(C)=C/C(=O)N[C@@H](Cc1ccc(O)cc1)C(=O)O` [N-geranoyltyrosine] yielded a response vs control in vivo at 0.25 mg in data set [1] of 25 to 50%. Also, in data set [2], the “Toxicity Death rate” value is listed as “−” and the “Toxicity Weight loss” value is recorded as “+/− (110˜100%)”.

In data set [1], `CC(C)=CCC/C(C)=C/CNC(=O)CC(O)C(=O)NC/C=C(\C)CCC=C(C)C` (stereo not drawn) [N,N′-digeranylmalic diamide, N,N′-digeranylmalic Diamide] displayed a response vs control in vivo at 0.25 mg of 50 to 75%. In data set [2], the “Toxicity Death rate” value was “−” and the “Toxicity Weight loss” value was “+ (100˜95%)”.

Regarding `CC(C)=CCC/C(C)=C/C(=O)NC1C(O)OC(CO)C(O)C1O` (stereo not drawn), the response vs control in vivo at 0.25 mg in data set [1] was in the range of 0 to 25%. Moreover, in data set [2], the “Toxicity Death rate” value was “−” and the “Toxicity Weight loss” value is on record as “+ (100˜95%)”.

`CC(C)=CCC/C(C)=C/C(=O)NC1C(O)OC(C)C(O)C1O` (stereo not drawn) [N-fucosegeranamide]: in data set [1], the response vs control in vivo at 0.25 mg lay in the range of 25 to 50%. Also, in data set [2], the “Toxicity Death rate” value is reported as “−” and the “Toxicity Weight loss” value is given as “+/− (110˜100%)”.

In turn, `CC(O)(CCO)CC(=O)NC1C(O)OC(CO)C(O)C1O` (stereo not drawn) came in with a response vs control in vivo at 0.25 mg in data set [1] of 25 to 50%. Further, in data set [2], the “Toxicity Death rate” value is reported as “−” and the “Toxicity Weight loss” value is recorded as “+/− (110˜100%)”.
